Data on two compounds can be found in article PMC7617456, “Cryptosporidium lysyl-tRNA synthetase inhibitors define the interplay between solubility and permeability required to achieve efficacy” (Science translational medicine, 2024).

The nature of one data set: Dog pharmacokinetics. The data set is classed as in vivo. As to the method: Dog pharmacokinetics (WuXi App Tec)
As for mouse except using male beagle dogs (IV dose volume: 3 mg/mL; dose vehicle: 10% DMSO, 40% PEG400, 50% (40%HP-β-CD in water); PO dose volume: 2 mg/mL; dose vehicle: 1% CMC-Na(800-1200)+0.2% Tween 80 in water). Pharmacokinetic parameters were derived from the blood concentration-time curve using WinNonLin Professional Software v 6.3 (Pharsight Corporation). […]

A short description of data set [1]: Liver microsomal intrinsic clearance, mouse. The format is in vitro ADME. Conditions: mouse liver microsomes. On the technique in general: Microsomes from liver hold many membrane-bound enzymes, among them those of drug oxidation.
A further data set has as its target CYP450 2C9 (Homo sapiens, UniProt P11712). Briefly: CYP450 inhibition 2C9. The data set is classed as in vitro ADME. As to the method: (§1) CYP450 inhibition (Dundee)
(§2) As previously described.(31)
(§3) DDD489 and DDD508 were evaluated for their ability to induce reverse mutations both in the presence and absence of S9 mix at the histidine locus in the genome of four strains of Salmonella typhimurium (TA98, TA100, TA1535, and TA97a) and at the tryptophan locus in the genome of Escherichia coli WP2 uvrA in a mini-Ames study conducted at WuXi App Tec […]
(§4) hERG inhibition (WuXi App Tec)
(§5) DDD489 and DDD508 were evaluated for their effects on cloned hERG potassium channels stably expressed in Chinese Hamster Ovary (CHO) cells using manual patch-clamp technique in a hERG inhibition assay conducted at WuXi App Tec (Suzhou).
(§6) Mitochondrial toxicity (Cyprotex)
(§7) DDD489 and DDD508 were evaluated for their effects on mitochondrial function in a functional mitochondrial toxicity assay using Seahorse XFe96 flux analyser conducted at […]
(§8) 44 screen safety panel (Eurofins)
(§9) DDD489 was evaluated for off-target effects in a SafetyScreen44 panel at Eurofins Cerep.
(§10) All regulated procedures, at the University of Dundee, on living animals were carried out under the authority of a project license issued by the Home Office under the Animals (Scientific Procedures) Act 1986, as amended in 2012 (and in compliance with EU Directive EU/2010/63). […]

In the next data set the test system is KRS-OE. Briefly: Transgenic C. parvum NanoLuciferase drug sensitivity assay, KRS-OE. The data set is classed as cell-based. The note with it: Cryptosporidium parvum, HCT-8, 48 h, read-out: EC50, KRS-OE.
Data set [2] has as its system transgenic C. parvum that express NanoLuciferase. Kind of data set: NOD SCID Gamma chronic mouse efficacy model. The note with it: 50 mg/kg BID oral 7 days from day 36 PI. The format is in vivo. As to the method: We next developed a mouse efficacy model that mimics chronic infection. In this model, NOD SCID Gamma mice were allowed to become highly infected (>10^9 RLU) and maintain this for a minimum of one week before compound treatment was administered (Fig. 4C). To achieve efficacy against this chronic infection, compounds must kill more parasites, offering a more rigorous method for assessing suitability for progression.
Male NOD SCID Gamma mice (NOD.Cg-Prkdc^scid Il2rgtm1Wjl/SzJ; purchased from Charles Rivers) aged 10 weeks old were used (n = 4 mice per experimental group). Mice were infected by oral gavage (5,000 oocysts of Δtk::mNeon-Neo^R). Oocyst shedding in feces was determined by NanoLuciferase assay as described above. Once infection became chronic (at least 1 week of fecal RLUs/g at >10^9), compounds were administered. DDD489 was prepared in HPMC without DMSO and administered by oral gavage at 50 mg/kg starting day 36 post infection. Early lead compound DDD706 served as the positive control (administered at 20 mg/kg QD). Fecal samples were pooled from all mice in the cage on days indicated.

A further data set deals with C. parvum. Briefly: microbe, parasite or virus in culture. The note with it: for EC90: HCT-8, read-out: C. parvum EC90. The format is cell-based, Cryptosporidium parvum.
A further data set is described as follows: PAMPA permeability. The format is in vitro ADME. Conditions: for Papp at 5 h, 10 µM: PAMPA, pH 7.4, pH 7.4. As to the method: Solubility test samples were prepared by adding 5 μL stock to PBS pH 7.4 (195 μL). […] […] vacuum […] (Millipore Multiscreen HTS fi lter, 96-well format) to remove any undissolved material. The […] analyzed for dissolved drug compound using a truncated UHPLC methodology. A calibration solution was prepared for each test compound. […] Aliquots of the test sample […] (0.4 and 5.0 μL) were injected onto the UHPLC system and the resultant test compound peak areas quantifi ed […] PAMPA per meability As previously described.(28) The permeability assay was performed using a 96-well precoated BD Gentest PAMPA plate (BD Biosciences). Each well was divided into two chambers: donor and acceptor, separated by a lipid-oil-lipid trilayer constructed in a porous fi lter. […] Stock solutions (5 mM) of the compound were prepared in DMSO. […] The compound dissolved in phosphate buffered saline was added to the donor side of the membrane, and phosphate-buffered saline without the compound was added to the acceptor side. The PAMPA plate was left at room temperature for 5 h then an aliquot (100 μL) was removed from both acceptor and donor compartments and mixed with acetonitrile (80 μL) containing an internal standard: donepezil at 50 ng/mL. The samples were centrifuged (10 min, 5 °C, 3270×g) to sediment lipids and sealed prior to UPLC-MS/MS analysis using a Quattro Premier XE (Waters Corp, USA). Recovery of the compound from donor and acceptor wells was calculated, and data were only accepted when recovery exceeded 70%.

A short description of data set [3]: Hepatocyte intrinsic clearance, rat. Conditions: rat hepatocytes. The data set is classed as in vitro ADME.
The target in a further data set is CYP450 2C19 (Homo sapiens, UniProt P33261). Kind of data set: CYP450 inhibition 2C19. The data set is classed as in vitro ADME. As to the method:
as §1, §2, §3, §4, §5, §6, §7, §8, §9, §10

For another data set, the target named is T1, HsKRS (Homo sapiens, UniProt Q15046).
T1 construct: made in house
T1 sequence (Q15046 whole entry): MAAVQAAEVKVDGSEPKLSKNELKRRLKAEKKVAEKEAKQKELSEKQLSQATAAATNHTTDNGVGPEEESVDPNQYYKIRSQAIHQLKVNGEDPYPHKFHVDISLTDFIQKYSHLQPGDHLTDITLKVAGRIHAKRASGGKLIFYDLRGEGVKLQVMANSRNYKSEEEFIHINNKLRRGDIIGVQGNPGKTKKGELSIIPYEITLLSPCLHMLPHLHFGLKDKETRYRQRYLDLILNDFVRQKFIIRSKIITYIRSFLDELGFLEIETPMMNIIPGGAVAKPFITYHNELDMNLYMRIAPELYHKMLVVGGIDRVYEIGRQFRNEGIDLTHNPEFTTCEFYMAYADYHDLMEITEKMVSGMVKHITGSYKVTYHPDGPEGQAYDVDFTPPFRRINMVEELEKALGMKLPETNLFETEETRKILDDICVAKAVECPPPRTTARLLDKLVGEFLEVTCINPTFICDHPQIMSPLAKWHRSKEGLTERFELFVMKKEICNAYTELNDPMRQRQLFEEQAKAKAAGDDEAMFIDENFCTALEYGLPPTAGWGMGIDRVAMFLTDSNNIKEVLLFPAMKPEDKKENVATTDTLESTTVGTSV
Kind of data set: HsKRS in vitro enzyme assay. Conditions: mean (95% confidence interval). The data set is classed as biochemical.

Setting [4] is: male, beagle, whole blood, dog PO 10 mg/kg.
Setting [5] is: Cryptosporidium parvum, HCT-8, 48 h, read-out: C. parvum EC50, co-cultured with HCT-8 cells for 48 hrs.
[6] abbreviates: read-out: C. parvum EC50, co-cultured with HCT-8 cells for 48 hrs.

Read-outs that look alike come from different tables or passages of the source.

In general, AUC refers to the area under the concentration-time curve, a measure of exposure. The Cmax is the highest concentration seen after dosing. For orientation: Tmax means the time at which the peak concentration occurs. As usually defined, the bioavailability is the share of a dose that reaches the circulation, judged against a reference dose that is usually intravenous. What is called IC50 is the concentration at which inhibition is half-maximal. A high value points to weaker potency. As a reminder, the EC50 is the concentration giving half of the maximal effect. For orientation: EC90 means the point of the concentration-response curve where the effect stands at 90%. As usually defined, the Papp is a coefficient for how fast a substance crosses the barrier.

CYP450 2C19, sequence (P33261 whole entry): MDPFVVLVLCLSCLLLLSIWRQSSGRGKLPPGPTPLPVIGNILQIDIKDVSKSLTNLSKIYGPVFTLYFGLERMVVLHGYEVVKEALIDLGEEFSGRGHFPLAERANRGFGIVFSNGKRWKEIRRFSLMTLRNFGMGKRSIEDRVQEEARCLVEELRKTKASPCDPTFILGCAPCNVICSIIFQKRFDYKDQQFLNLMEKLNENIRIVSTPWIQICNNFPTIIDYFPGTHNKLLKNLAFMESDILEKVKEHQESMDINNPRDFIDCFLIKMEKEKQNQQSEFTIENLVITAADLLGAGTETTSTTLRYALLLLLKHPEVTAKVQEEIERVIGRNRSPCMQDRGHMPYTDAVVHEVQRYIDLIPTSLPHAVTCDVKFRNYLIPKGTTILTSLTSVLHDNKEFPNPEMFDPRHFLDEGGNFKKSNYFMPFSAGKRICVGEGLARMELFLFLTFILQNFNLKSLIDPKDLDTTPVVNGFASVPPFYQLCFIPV
CYP450 2C9, sequence (P11712 whole entry): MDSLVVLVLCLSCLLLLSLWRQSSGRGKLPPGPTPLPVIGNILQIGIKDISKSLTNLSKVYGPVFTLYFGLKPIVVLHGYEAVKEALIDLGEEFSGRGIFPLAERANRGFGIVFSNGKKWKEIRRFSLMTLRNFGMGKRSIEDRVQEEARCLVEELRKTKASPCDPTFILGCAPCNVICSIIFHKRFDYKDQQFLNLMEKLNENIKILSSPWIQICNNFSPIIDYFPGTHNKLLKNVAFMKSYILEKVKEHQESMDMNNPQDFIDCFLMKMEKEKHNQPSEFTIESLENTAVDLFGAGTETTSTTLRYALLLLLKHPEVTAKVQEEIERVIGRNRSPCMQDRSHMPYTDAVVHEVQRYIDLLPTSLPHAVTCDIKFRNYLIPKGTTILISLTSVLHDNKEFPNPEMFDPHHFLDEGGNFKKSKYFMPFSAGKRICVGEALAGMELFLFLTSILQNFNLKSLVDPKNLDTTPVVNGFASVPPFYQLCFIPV

As to `Nc1nc2c(c(C(F)(F)F)n1)C(=O)N(CC1CCCC(C(F)(F)F)C1)C2` (stereo not shown) [DDD489], the CLB in the data set “Dog pharmacokinetics” (dog IV 3 mg/kg, clearance in blood) is given as 52 mL/min/kg. Further, in “Dog pharmacokinetics” (male, beagle, whole blood, 3 mg/kg, dog, IV, read-out: T½ (converted)), the half-life was 1.7 h. The Vd in “Dog pharmacokinetics” (male, beagle, whole blood, 3 mg/kg, dog, IV, read-out: Vdss) was determined as 4.2 L/kg. For the same compound, the exposure (AUC) in “Dog pharmacokinetics” (male, beagle, whole blood, dog IV 3 mg/kg) was 1000 ng·h/mL; in the data set “Dog pharmacokinetics” (setting [4]), 667 ng·h/mL. Also, in the data set “Dog pharmacokinetics” (setting [4]), the highest level (Cmax) was 200 ng/mL. Besides, the time to peak (Tmax) in the data set “Dog pharmacokinetics” (setting [4]) came out at 1.2 h. Moreover, the bioavailability in “Dog pharmacokinetics” (male, beagle, whole blood, dog PO 10 mg/kg, read-out: F (oral bioavailability)) came out at 18%. Further, in [1], the “Mics CLi (m)” value is given as 12 mL/min/g. Moreover, the IC50 at CYP450 2C9 is 32000 nM; against CYP450 2C19 it was more than 100000 nM; against HsKRS it was 22000 nM. The concentration for a half-maximal effect (EC50) in the data set on KRS-OE is 978 nM; in the data set with C. parvum (setting [5]), 43 nM; with C. parvum (setting [6]), 40 nM. For the same compound, in data set [2], the “parasite shedding by end of treatment period” value is recorded as “reduce parasite shedding below the LOQ”. In addition, the recrudescence result in [2] is “failed to prevent recrudescence”. The EC90 in the data set with C. parvum (Cryptosporidium parvum) was found to be 100 nM. Also, the apparent permeability (Papp) at 5 h, 10 µM in the data set “PAMPA permeability” is 17.1 ×10⁻⁶ cm/s. Further, the “Heps CLi (r)” value in data set [3] worked out at 1.9 mL/min/g.
Consider `O=C(NCC1(O)CCCCC1)c1cc(=O)c2cc(O)ccc2o1` [DDD508], for which the “Mics CLi (m)” value in data set [1] came to 1.4 mL/min/g. Also, the results for the half-inhibitory concentration (IC50) against CYP450 2C9, against CYP450 2C19 and against HsKRS were more than 100000 nM, more than 100000 nM and 10000 nM, respectively. In addition, the EC50 with KRS-OE is more than 1000 nM; in the data set with C. parvum (setting [5]), 132 nM; with C. parvum (setting [6]), 130 nM. For the same compound, the 90% effect concentration (EC90) in the data set on C. parvum (Cryptosporidium parvum) stood at 380 nM. This compound yielded a Papp at 5 h, 10 µM in the data set “PAMPA permeability” of 0.69 ×10⁻⁶ cm/s. In “PAMPA permeability” (pH 7.4), the “PAMPA Papp” value came to 0.7 ×10⁻⁶ cm/s. The “Heps CLi (r)” value in [3] came out at 1.1 mL/min/g.
